Test results: patent US8642765B2, “Azaindole-indole coupled derivatives, preparation methods and uses thereof” (priority 2007, dated 2014)
Where two headings read alike, the source gives them in different places.

Legend:
[1] = tested on: DU145 tumor cells; assay: MTT growth inhibition of DU145 cells, 72 h; assay type: cell-based, human; conditions: for IC50 / IC90: DU145, 72 h, MTT; for growth inhibitory effects on tumor cells (in words): discussion of the MTT assay, DU145
Experimental: DU145 cells were inoculated in RPM11640 medium containing 10% calf serum, incubated at 37° C., 5% CO2 in CO2 incubator, and passaged every 2-3 days. In this experiment, cells were grown in logarithmic growth phase.
In the experiment, the cells at logarithmic growth phase were formulated into suspension, and the viability by trypan blue staining was more than 98%. The suspension was divided into several groups: 1 as blank control group (cell suspension); and 2 as experimental groups (cell suspension plus drugs).
(§1) The drugs were formulated into a stock solution in DMSO, and the concentration of the stock solution was 20 mmol (used within 4 hours). In the experiment, the work solution of the drugs was diluted with RPM11640 medium containing 10% calf serum under aseptic condition, to a final concentration of 80 μM. The drug concentrations were increased by 2 times (1.25-20 μM).
(§2) The DU145 cell in logarithmic growth phase were selected, centrifuged, counted, and formulated into a cell suspension (2.5×10^4/ml) with RPM11640 medium containing 10% calf serum. The cell suspension were inoculated into 96-well plates at a density of 5000 cells/200 μl per well, incubated for 24 hours at 37° C., 5% CO2. According to the above concentration of the drug, the cells were inoculated to 6 groups (including one control group), with 8 wells per group. After incubating for 72 hours, the viability of cells was measured by MTT assay. The absorbance value (A) was measured with detection wavelength at 540 nm, reference wavelength at 630 nm. The inhibitory rate (I) was calculated by the following equation, where T was the absorbance value of the experimental groups, and C was the absorbance value of the blank control group: I=(1−T/C)×100%
(§3) The regression equation was calculated by the concentration-inhibitory rate curve, to obtain 50% and 90% inhibition concentration (IC50 and IC90, μM).

[2] = tested on: human hepatoma cell line 7701 QGY; assay: MTT growth inhibition of 7701 QGY cells; assay type: cell-based; conditions: read-out: IC50 (μM) Tumor cells 7701 QGY
Experimental: as §1, §2, §3
(§4) 1. Tumor Cells: human hepatoma cell lines 7701 QGY and HepG-2, human lung adenocarcinoma cell line A549, human chronic myelocytic leukemia cell line K562, human leukemia cell line CEM and mouse melanoma cell line K111.
(§5) 2. Using the methods described in example 2, the biological activity of a portion of newly synthesized 5- or 7-azaindirubin derivatives and 5- or 7-azaisoindigo derivatives (20 compounds) for inhibiting various tumor cells growth were determined.

[3] = tested on: human hepatoma cell line HepG-2; assay: MTT growth inhibition of HepG-2 cells; assay type: cell-based; conditions: HepG-2, MTT, read-out: IC50 (μM) Tumor cells HepG-2
Experimental: as §1, §2, §3, §4, §5

[4] = tested on: human lung adenocarcinoma cell line A549; assay: MTT growth inhibition of A549 cells; assay type: cell-based; conditions: read-out: IC50 (μM) Tumor cells A549
Experimental: as §1, §2, §3, §4, §5

[5] = tested on: human chronic myelocytic leukemia cell line K562; assay: MTT growth inhibition of K562 cells; assay type: cell-based; conditions: read-out: IC50 (μM) Tumor cells K562
Experimental: as §1, §2, §3, §4, §5

[6] = tested on: human leukemia cell line CEM; assay: MTT growth inhibition of CEM cells; assay type: cell-based; conditions: read-out: IC50 (μM) Tumor cells CEM
Experimental: as §1, §2, §3, §4, §5

[7] = tested on: mouse melanoma cell line K111; assay: MTT growth inhibition of K111 cells; assay type: cell-based; conditions: Klll, read-out: IC50 (μM) Tumor cells Klll
Experimental: as §1, §2, §3, §4, §5

[8] = tested on: phospho-CDK2^Thr160; assay: Western blot of phospho-CDK2 in DU145 cells; assay type: cell-based, human; conditions: DU145, treated for 24 hours, FIG. 3
Text: (§6) Reagents: The tested compounds were the same as example 2. Unless otherwise indicated, other chemical reagents were purchased from Sigma Chemical Company (USA). Polyacrylamide gel used in protein electrophoresis, SDS, electrophoresis buffer, transfer buffer protein, nitrocellulose membrane were purchased from American Bio-Rad Life Science Company. Western blotting detection kits and films were purchased from American GE Company. Phospho-CDK2^Thr160 antibody, endogenous cyclin-dependent inhibitor p27 antibody, CyclinD1 and β-Actin antibody were purchased from American Cell Signaling Inc., DAKO and Santa Cruz Biochemical Technology Company.
(§7) Tumor cells and methods for cell culture were the same as example 2.
(§8) Phospho-Cdc2, p27, and Cyclin D1 were Detected by Western Blot: The human prostate cancer cell lines DU145 at logarithmic growth phase were treated with compounds No. 124 and No. 126 (concentration is shown in FIG. 3) for 24 hours. The cells were harvested and washed. Total cellular proteins were extracted and quantified as described previously^[14]. 50 μg of protein was separated on a SDS-PAGE, electro-transferred to nitrocellulose filters. Western blot were performed using specific antibodies against Phospho-CDK2, endogenous cyclin-dependent inhibitor p27 and CyclinD1, with β-Actin antibody as an internal standard. The result was recorded by ECL films.

[9] = tested on: Cyclin D1; assay: Western blot of Cyclin D1 in DU145 cells; assay type: cell-based, human; conditions: DU145, treated for 24 hours, FIG. 3
Text: as §6, §7, §8

[10] = tested on: endogenous cyclin-dependent inhibitor p27; assay: Western blot of p27 in DU145 cells; assay type: cell-based, human; conditions: DU145, treated for 24 hours, FIG. 3
Text: as §6, §7, §8

[11] = Safety profile (stated in the discussion, no method described); conditions: discussion of Example 2; no data shown
[12] = Solubility assay in solvents; assay type: physicochemical; conditions: for solubility in Acetone / solubility in deionized water / solubility in ethanol / solubility in methanol / solubility in petroleum ether (boiling range: 60~90° C.) / solubility in trichlormethane: 5 mg in 2 ml solvent, room temperature (20° C.); for change of lipid solubility / change of water solubility: 129 relative to 91, 91 relative to indirubin
Experimental: Testing Methods: 5 mg of the compound no. 129 and 91 were respectively added into 2 ml solvent at room temperature (20° C.), and stirred to dissolve.

[13] = Dissolution of solid dispersion preparations; assay type: physicochemical; conditions: 45 minute, 100 ml of 1% sodium dodecyl sulfate solution, 37±0.5° C., 100 r/min
Experimental: Instruments: RCZ-5A capacity medicament dissolve and infiltrate apparatus is made by Tianjin University Precision Instruments Factory. UV1900 UV-Vis spectrophotometer is made by Shanghai Yayan Electronic Science And Technology Co., Ltd.
Dissolution determination methods: According to the third method of XC dissolution assay stated in the appendix of Chinese Pharmacopeia (Edition 2005), the rotation speed was 100 r/min, the temperature was 37±0.5° C., and the dissolution medium was 100 ml of 1% sodium dodecyl sulfate solution degassed ultrasonically. A specimen was withdrawn at 45 minute and immediately filtered through a 0.8 μm water membrane. The filtrate was quantitatively diluted. The absorbance was measured by UV1900, and the dissolution percentage was calculated.

[14] = Homo sapiens, DU-145, 72 h, Table 6
[15] = Homo sapiens, DU-145, 72 h, Table 5

SMILES | IC50 ([1]; Table 6) | IC90 ([1]; Table 6) | IC50 [2] | IC50 [3] | IC50 [4] | IC50 [5] | IC50 [6] | IC50 [7] | further results
O=C1C(=C2Nc3ccc(Cl)cc3C2=NO)c2cccnc2N1Cc1ccccc1 [Compound 126] | 7.1 µM | 19 µM | 11.2 µM | 16.3 µM | 9.6 µM | 5.1 µM | 8.1 µM | 14.2 µM | level of CDK2 activity (phosphorylation) [8]: decreased in a dose-dependent manner; protein expression of cyclin D1 [9]: significantly decreased; expression of endogenous cyclin-dependent inhibitor p27 [10]: significantly increased
CC(C)N1C(=O)C(=C2Nc3ccc(Br)cc3C2=NO)c2cnccc21 [Compound 30] | – | – | – | – | – | – | – | – | IC50 ([1]; Table 5): 3.3 µM; IC90 ([1]; Table 5): 7 µM; growth inhibitory effects on tumor cells (in words) [1]: relatively significant growth inhibitory effects; safety profile [11]: good safety profile
CCN1C(=O)/C(=C2\Nc3ccccc3\C2=N/O)c2cccnc21 [Compound 129] | – | – | – | – | – | – | – | – | IC50 [1, 14]: 3.8 µM; IC90 [1, 14]: 12 µM; IC50 ([2]; Homo sapiens): 7.4 µM; IC50 ([3]; Homo sapiens, HepG2): 13 µM; IC50 ([4]; Homo sapiens): 14.1 µM; IC50 ([5]; Homo sapiens): 3.4 µM; IC50 ([6]; Homo sapiens, CCRF-CEM): 7 µM; IC50 ([7]; Mus musculus): 4.2 µM; solubility in Acetone [12]: slightly soluble; solubility in deionized water [12]: slightly soluble; solubility in ethanol [12]: slightly soluble; solubility in methanol [12]: soluble; solubility in petroleum ether (boiling range: 60~90° C.) [12]: insoluble; solubility in trichlormethane [12]: slightly soluble; change of lipid solubility [12]: decreased; change of water solubility [12]: increased
CC(C)N1C(=O)C(=C2Nc3ccc(Br)cc3C2=NO)c2cccnc21 [Compound 121] | 3.1 µM | 29 µM | 14.9 µM | 16 µM | 18.1 µM | 11.5 µM | 11.3 µM | 6 µM | growth inhibitory effects on tumor cells (in words) [1]: relatively significant growth inhibitory effects; safety profile [11]: good safety profile
CC(=O)OCC1OC(N2C(=O)C(=C3C(=O)Nc4ccccc43)c3cc(C)cnc32)C(OC(C)=O)C1OC(C)=O (centres unmarked) [Compound 158] | 10.5 µM | 49 µM | 44 µM | 18 µM | 22.3 µM | 5.8 µM | 12 µM | 8.3 µM | –
CCCCN1C(=O)C(=C2Nc3ccc(Cl)cc3C2=NO)c2cccnc21 [Compound 124] | 1.8 µM | 12 µM | – | – | – | – | – | – | growth inhibitory effects on tumor cells (in words) [1]: relatively significant growth inhibitory effects; level of CDK2 activity (phosphorylation) [8]: decreased in a dose-dependent manner; protein expression of cyclin D1 [9]: significantly decreased; expression of endogenous cyclin-dependent inhibitor p27 [10]: significantly increased; safety profile [11]: good safety profile
CCN1C(=O)C(=C2Nc3ccc(Br)cc3C2=NO)c2cccnc21 [Compound 119] | 4 µM | 12 µM | 13.5 µM | 8.1 µM | 8.5 µM | 7.9 µM | 9 µM | 8.1 µM | –
CCN1C(=O)C(=C2C(=O)N(CC)c3ncccc32)c2cc(Br)ccc21 [Compound 160] | 14 µM | 61 µM | 25.4 µM | 31.1 µM | 29.1 µM | 10.2 µM | 10.8 µM | 15 µM | –
CN1C(=O)C(=C2Nc3ccc(Cl)cc3C2=NO)c2cccnc21 [Compound 116] | 6.9 µM | 16 µM | 11.1 µM | 20.5 µM | 12.5 µM | 8.2 µM | 5.6 µM | 6.3 µM | growth inhibitory effects on tumor cells (in words) [1]: relatively significant growth inhibitory effects
CCN1C(=O)/C(=C2\Nc3ccccc3\C2=N/O)c2ccccc21 [Compound 91, 1-ethyl-indirubin-3′-oxime, reference compound] | – | – | – | – | – | – | – | – | IC50 [1, 15]: 4.2 µM; IC90 [1, 15]: 21.8 µM; IC50 [1, 14]: 4.1 µM; IC90 [1, 14]: 22 µM; solubility in Acetone [12]: easily soluble; solubility in deionized water [12]: insoluble; solubility in ethanol [12]: dissoluble; solubility in methanol [12]: slightly soluble; solubility in petroleum ether (boiling range: 60~90° C.) [12]: slightly soluble; solubility in trichlormethane [12]: easily soluble; change of lipid solubility [12]: increased; change of water solubility [12]: decreased
CN1C(=O)C(=C2C(=O)Nc3ccc(F)cc32)c2cccnc21 [Compound 154] | 43 µM | > 100 µM | 36 µM | 29.3 µM | 12.4 µM | 19 µM | 9.8 µM | 12 µM | –
CNc1cnc2c(c1)C(=C1Nc3ccc(F)cc3C1=O)C(=O)N2Cc1ccccc1 [Compound 111] | 7.4 µM | 34 µM | 28.5 µM | 17 µM | 24.3 µM | 15 µM | 11 µM | 15.1 µM | –
CC(C)N1C(=O)C(=C2Nc3ccc(Br)cc3C2=O)c2cccnc21 [Compound 105] | 8.1 µM | 28.5 µM | 13.4 µM | 32 µM | 24.1 µM | 19 µM | 8 µM | 11.9 µM | –
O=C1C(=C2C(=O)N(Cc3ccccc3)c3ncccc32)Nc2ccc(Br)cc21 [Compound 109, 1-benzyl-5′-bromo-7-azaindirubin] | 7 µM | 24 µM | 10 µM | 21.2 µM | 15.8 µM | 12.5 µM | 9 µM | 18.6 µM | –
O=C1C(=C2C(=O)N(Cc3ccccc3)c3ccncc32)Nc2ccc(Br)cc21 [Compound 18] | – | – | – | – | – | – | – | – | IC50 ([1]; Table 5): 6.6 µM; IC90 ([1]; Table 5): 23.5 µM; Dissolution percentages (%) [13]: 4%
